Results from patent US7935853B2, “Micronized composition of a 2,4-disubstituted phenol derivative” (priority 2008, dated 2011).
Values after ≈ are worked out from the molar mass of the structure shown.

How the values were obtained:
[1] = system: LTB4 synthesis; assay: First phase I trial, plasma concentration vs LTB4 synthesis inhibition (EMAX); format: in vivo; conditions: Homo sapiens; healthy volunteers, single oral dose, EMAX type relationship; read-out: IC50 (level of drug in plasma eliciting half of maximal LTB4 synthesis inhibition)
Source text: (§1) 2,4,6-triiodophenol is a potent leukotriene B4 (LTB4) synthesis inhibitor that is currently under clinical development. The exact mechanism of action of 2,4,6-triiodophenol is not completely understood but it is known that the inhibition of the enzyme 5-lipoxygenase is involved.

[2] = First phase I clinical trial, single oral dose, safety and pharmacokinetics; format: in vivo, human; conditions: healthy volunteers
Description: as §1
A preliminary exploratory analysis was done by simulating the typical pharmacokinetic profiles after single and multiple 240, 350, and 500 mg dose regimens based on the pharmacokinetic model and model parameter estimates obtained from the first phase I study, where 2,4,6-triiodophenol was given to healthy volunteers in a single dose ranging from 6 to 1200 mg.

[3] = system: arthritis induced by injection of type II collagen in the mouse; assay: Model of arthritis induced by type II collagen in mice (CIA), hind paw plethysmometry; format: in vivo; conditions: for Total hind paw volume (sum of both hind paws) / Oedema (difference in paw volume from basal values on day 21) in both hind paws: group mean n=10
Description: The aim of the study was to determine the anti-inflammatory activity of the test item in a model of arthritis induced by injection of type II collagen in the mouse (CIA) and to compare the activity of two different formulations: micronized and non-micronized.
Induction of arthritis was carried out by an initial exposure to type II bovine collagen by a subcutaneous injection at the base of the tail (induction phase).
After a recovery time of 21 days, animals received a booster injection and approximately 4-5 weeks after the first injection there was an immune response with arthritis appearing in the extremities in the majority of the cases.
Four experimental groups were used in the study with 10 animals in each group:
Group D: Positive control: FCA+vehicle B.I.D.
Group E: Micronized Test Item (Micro) 10 mg/kg B.I.D.
Group F: Non-Micronized test item 10 mg/kg B.I.D.
Group G: Reference item: Indomethacin 1 mg/kg Q.D.
The dose administered to groups E and F was 10 mg/kg.
The dose administered to group G was 1 mg/kg.
The doses of the test and reference items were expressed as mg/Kg of compound administered to each animal.
The test and reference items were administered in a solution of methylcellulose (0.25%: vehicle).
The positive control group received the vehicle (methylcellulose 0.25%).
The test and reference items, as well as the vehicle were administered orally at a dosing volume of 5 mls/kg.
The route of administration used was oral by use of an intragastric cannula.
On the day of start of the study each mouse was injected subcutaneously at the base of the tail with a first dose of 0.1 ml of an emulsion of bovine type II collagen (1 mg/mL) in Freund's Complete Adjuvant. Afterwards, on day 21 after this first injection, a second booster injection of type II collagen was administered to all animals. In this occasion the collagen suspension was done using Incomplete Freund's Adjuvant.
Coinciding with the second booster injection on day 21 treatment with the test or reference items was started to the corresponding animals.
Treatment with the test or reference items was carried out for 31 consecutive days (days 21-51 of the experimental period). Additionally, a recovery period was included at the end of the treatment period from day 52 to day 65 in order to evaluate the duration of any anti-inflammatory effect observed once dosing has been terminated.
The animals' hind paw volume was measured by plethysmometry one day before the 1st injection of collagen, again one day before the second (booster) collagen injection (basal values) and then daily after administration of test/reference item until the end of the study. During the recovery period at the end of the study, hind paw volume was measured three times per week.
Additionally the data was also represented graphically, depicting changes in total hind paw volume, as well as oedema (differences from basal (day 21) values).

[4] = day 22, oral treatment days 21-51
[5] = day 23, oral treatment days 21-51
[6] = day 26, oral treatment days 21-51
[7] = day 27, oral treatment days 21-51
[8] = day 29, oral treatment days 21-51
[9] = day 30, oral treatment days 21-51
[10] = day 33, oral treatment days 21-51
[11] = day 34, oral treatment days 21-51
[12] = day 35, oral treatment days 21-51
[13] = day 36, oral treatment days 21-51
[14] = day 37, oral treatment days 21-51
[15] = day 40, oral treatment days 21-51
[16] = day 41, oral treatment days 21-51
[17] = day 42, oral treatment days 21-51
[18] = day 43, oral treatment days 21-51
[19] = day 44, oral treatment days 21-51
[20] = day 47, oral treatment days 21-51
[21] = day 48, oral treatment days 21-51
[22] = day 49, oral treatment days 21-51
[23] = day 50, oral treatment days 21-51
[24] = day 51, oral treatment days 21-51
[25] = day 54, recovery period after treatment days 21-51
[26] = day 56, recovery period after treatment days 21-51
[27] = day 58, recovery period after treatment days 21-51
[28] = day 61, recovery period after treatment days 21-51
[29] = day 63, recovery period after treatment days 21-51
[30] = day 65, recovery period after treatment days 21-51

SMILES: Oc1c(I)cc(I)cc1I [2,4,6-triiodophenol]
- IC50 [1]: 16.6 µg/mL (≈ 35.2 µM)
- safety and tolerability ([2]; single oral dose from 6 mg to 1200 mg): very good safety and tolerability profiles
- pharmacokinetic behavior ([2]; single oral dose, at least in the range from 240 to 700 mg): predictable and dose-independent

SMILES: COc1ccc2c(c1)c(CC(=O)O)c(C)n2C(=O)c1ccc(Cl)cc1 [Indomethacin, reference compound]
- Total hind paw volume (sum of both hind paws) ([3]; day 0, before collagen and treatment): 0.175
- Total hind paw volume (sum of both hind paws) ([3]; day 20, basal, before treatment): 0.227
- Oedema (difference in paw volume from basal values on day 21) in both hind paws [3, 4]: 0.000
- Total hind paw volume (sum of both hind paws) [3, 4]: 0.227
- Oedema (difference in paw volume from basal values on day 21) in both hind paws [3, 5]: 0.000
- Total hind paw volume (sum of both hind paws) [3, 5]: 0.227
- Oedema (difference in paw volume from basal values on day 21) in both hind paws [3, 6]: 0.022
- Total hind paw volume (sum of both hind paws) [3, 6]: 0.249
- Oedema (difference in paw volume from basal values on day 21) in both hind paws [3, 7]: 0.001
- Total hind paw volume (sum of both hind paws) [3, 7]: 0.228
- Oedema (difference in paw volume from basal values on day 21) in both hind paws [3, 8]: 0.011
- Total hind paw volume (sum of both hind paws) [3, 8]: 0.237
- Oedema (difference in paw volume from basal values on day 21) in both hind paws [3, 9]: 0.012
- Total hind paw volume (sum of both hind paws) [3, 9]: 0.239
- Oedema (difference in paw volume from basal values on day 21) in both hind paws [3, 10]: 0.012
- Total hind paw volume (sum of both hind paws) [3, 10]: 0.238
- Oedema (difference in paw volume from basal values on day 21) in both hind paws [3, 11]: 0.013
- Total hind paw volume (sum of both hind paws) [3, 11]: 0.240
- Oedema (difference in paw volume from basal values on day 21) in both hind paws [3, 12]: 0.020
- Total hind paw volume (sum of both hind paws) [3, 12]: 0.246
- Oedema (difference in paw volume from basal values on day 21) in both hind paws [3, 13]: 0.012
- Total hind paw volume (sum of both hind paws) [3, 13]: 0.239
- Oedema (difference in paw volume from basal values on day 21) in both hind paws [3, 14]: −0.005
- Total hind paw volume (sum of both hind paws) [3, 14]: 0.222
- Oedema (difference in paw volume from basal values on day 21) in both hind paws [3, 15]: 0.028
- Total hind paw volume (sum of both hind paws) [3, 15]: 0.255
- Oedema (difference in paw volume from basal values on day 21) in both hind paws [3, 16]: 0.031
- Total hind paw volume (sum of both hind paws) [3, 16]: 0.257
- Oedema (difference in paw volume from basal values on day 21) in both hind paws [3, 17]: 0.021
- Total hind paw volume (sum of both hind paws) [3, 17]: 0.247
- Oedema (difference in paw volume from basal values on day 21) in both hind paws [3, 18]: 0.023
- Total hind paw volume (sum of both hind paws) [3, 18]: 0.250
- Oedema (difference in paw volume from basal values on day 21) in both hind paws [3, 19]: 0.011
- Total hind paw volume (sum of both hind paws) [3, 19]: 0.238
- Oedema (difference in paw volume from basal values on day 21) in both hind paws [3, 20]: 0.028
- Total hind paw volume (sum of both hind paws) [3, 20]: 0.254
- Oedema (difference in paw volume from basal values on day 21) in both hind paws [3, 21]: 0.025
- Total hind paw volume (sum of both hind paws) [3, 21]: 0.252
- Oedema (difference in paw volume from basal values on day 21) in both hind paws [3, 22]: 0.030
- Total hind paw volume (sum of both hind paws) [3, 22]: 0.256
- Oedema (difference in paw volume from basal values on day 21) in both hind paws [3, 23]: 0.030
- Total hind paw volume (sum of both hind paws) [3, 23]: 0.256
- Oedema (difference in paw volume from basal values on day 21) in both hind paws [3, 24]: 0.021
- Total hind paw volume (sum of both hind paws) [3, 24]: 0.248
- Oedema (difference in paw volume from basal values on day 21) in both hind paws [3, 25]: 0.040
- Total hind paw volume (sum of both hind paws) [3, 25]: 0.266
- Oedema (difference in paw volume from basal values on day 21) in both hind paws [3, 26]: 0.052
- Total hind paw volume (sum of both hind paws) [3, 26]: 0.279
- Oedema (difference in paw volume from basal values on day 21) in both hind paws [3, 27]: 0.058
- Total hind paw volume (sum of both hind paws) [3, 27]: 0.285
- Oedema (difference in paw volume from basal values on day 21) in both hind paws [3, 28]: 0.058
- Total hind paw volume (sum of both hind paws) [3, 28]: 0.28
- Oedema (difference in paw volume from basal values on day 21) in both hind paws [3, 29]: 0.064
- Total hind paw volume (sum of both hind paws) [3, 29]: 0.29
- Oedema (difference in paw volume from basal values on day 21) in both hind paws [3, 30]: 0.076
- Total hind paw volume (sum of both hind paws) [3, 30]: 0.30
- effect on hind paw oedema (in words) ([3]; test item 10 mg/kg BID, Indomethacin 1 mg/kg Q.D, oral): significant anti-inflammatory response
